US7232837B2, “Stereoisomers with high affinity for adrenergic receptors” (McNeil-PPC, Inc., priority 1999, dated 2007)

Tests used:
Dog = test: Dosage which raised mean arterial pressure 10%, dog; assay type: in vivo
Sprague Dawley rats [1] = test: Nasal airway pressure in histamine-challenged rats
Rat = test: Dosage which raised mean arterial pressure 10%, rat; assay type: in vivo
Sprague Dawley rats [2] = test: Nasal airway pressure in non-histamine-challenged rats; conditions: for Mean Decrease in Nasal Airway Pressure: rats, i.v., ± SEM
α2 adrenergic receptors = test: Alpha-2 binding, 125iodoclonidine, canine brain (frontal cortex) membranes; set-up: species or system canine (mongrel dogs); conditions: canine brain membranes; for IC50: inhibition of specific p-iodoclonidine binding; for Ki: p-iodoclonidine
Description: BRAIN ALPHA-2 RECEPTORS: Membranes of mongrel dogs were harvested from the canine frontal cortex and prepared as described for lung except that the final membrane protein concentration was adjusted to 0.5 mg/ml.
ALPHA-2 BINDING ^125IODOCLONIDINE. […] Nonspecific binding was determined in separate incubations in the presence of 10 μM phentolamine. The final concentration of p-iodoclonidine was 44–45 pM in competition studies and between 50 pM and 10 nM in saturation experiments. Bound and free p-^125iodoclonidine were separated and the bound quantified as described above for the ICYP assays. […] BETA-2 BINDING, ^125IODOCYANOPINDOLOL (^125ICYP). […] Nonspecific binding was determined in separate incubations in the presence of 2 μM d,l-propranolol. Each experimental point was determined in triplicate. […] Incubations were terminated as described above for the α1 assays. Filters were placed into polyethylene tubes and the bound ligand was determined by gamma spectrometry (Sano et al., 1993).
All data were analyzed with the aid of microcomputer nonlinear curve fitting programs (PRISM 2.0, Graphpad Software, San Diego Calif.).
The receptors resident in each of the three membrane preparations were evaluated by standard saturation analysis following the addition of increasing concentrations of the appropriate radioligand. […] The radio ligand added for subsequent α2-displacement assays was adjusted to evaluate only the high affinity receptor. Contributions from p-iodoclonidine binding to imidazoline receptors in the α2-displacement assay were evaluated with epinephrine.
The variable, I, is the concentration of tracer added and the variable, Kd, is the equilibrium dissociation constant empirically determined for this receptor population.

| Compound | Dosage of Enantiomer which raised mean arterial pressure 10%, Dog (Dog) [µg/kg] | nasal airway pressure, Post Drug (Sprague Dawley rats [1]; 100% dose i.v. after histamine challenge) [mm water] | nasal airway pressure, % Change (Sprague Dawley rats [1]; 100% dose i.v. after histamine challenge, post drug vs post histamine) [%] | nasal airway pressure, Post Histamine (Sprague Dawley rats [1]; after intranasal histamine 50 mM, before drug) [mm water] | nasal airway pressure, Control (Sprague Dawley rats [1]; before histamine and drug) [mm water] | Dosage of Enantiomer which raised mean arterial pressure 10%, Rat (Rat) [µg] | Mean Decrease in Nasal Airway Pressure (Sprague Dawley rats [2]; 5% of the dose that increased mean arterial pressure 10%) | Mean Decrease in Nasal Airway Pressure (Sprague Dawley rats [2]; 10% of the dose that increased mean arterial pressure 10%) | Mean Decrease in Nasal Airway Pressure (Sprague Dawley rats [2]; 25% of the dose that increased mean arterial pressure 10%) | Mean Decrease in Nasal Airway Pressure (Sprague Dawley rats [2]; 50% of the dose that increased mean arterial pressure 10%) | nasal airway pressure, Post Drug (Sprague Dawley rats [2]; 100% dose i.v. (jugular vein), non-histamine-challenged rats) [mm H2O] | nasal airway pressure, % Change (Sprague Dawley rats [2]; 100% dose i.v., non-histamine-challenged rats, post drug vs control) [%] | nasal airway pressure, Control (Sprague Dawley rats [2]; before drug, non-histamine-challenged rats) [mm H2O] | IC50 (α2 adrenergic receptors) [µM] | Ki (α2 adrenergic receptors) [µM] |
| --- | --- | --- | --- | --- | --- | --- | --- | --- | --- | --- | --- | --- | --- | --- | --- |
| CNC[C@@H](O)c1cccc(O)c1 [(+)-Phenylephrine, (+)-phenylephrine] | 80 | 5.5 ± 0.5 | −35.2 ± 2.5 | 8.7 ± 1.1 | 6.5 ± 0.4 | 24 | −4.00 ± 1.2 | −2.5 ± 1.0 | −4.6 ± 1.4 | −10.2 ± 3.9 | 8 ± 0.3 | −12.2 ± 3.1 | 9 ± 0.4 | – | – |
| (+)-norpseudoephedrine | – | – | – | – | – | – | – | – | – | – | – | – | – | 5 | 4 |
| (−)-norpseudoephedrine | – | – | – | – | – | – | – | – | – | – | – | – | – | 10 | 8 |
